# Laboratory results as given in ChEMBL document CHEMBL3132769, “Fragment growing to retain or alter the selectivity of anchored kinase hinge-binding fragments” (Medchemcomm, 2014).
# Experiments:
# [1] = target: RAC-alpha serine/threonine-protein kinase (Homo sapiens) (UniProt P31749); experiment: Inhibition of human AKT1 catalytic domain expressed in baculovirus assessed as substrate phosphorylation using fluorescence-labelled peptides as substrate at 8 uM after 90 mins by microfluidic peptide phosphorylation assay
# [2] = target: Fibroblast growth factor receptor 3 (Homo sapiens) (UniProt P22607); experiment: Inhibition of human FGFR3 catalytic domain expressed in baculovirus assessed as substrate phosphorylation using fluorescence-labelled peptides as substrate at 8 uM after 90 mins by microfluidic peptide phosphorylation assay
# Chain of Fibroblast growth factor receptor 3 (Homo sapiens) (P22607 23-806 limits assumed): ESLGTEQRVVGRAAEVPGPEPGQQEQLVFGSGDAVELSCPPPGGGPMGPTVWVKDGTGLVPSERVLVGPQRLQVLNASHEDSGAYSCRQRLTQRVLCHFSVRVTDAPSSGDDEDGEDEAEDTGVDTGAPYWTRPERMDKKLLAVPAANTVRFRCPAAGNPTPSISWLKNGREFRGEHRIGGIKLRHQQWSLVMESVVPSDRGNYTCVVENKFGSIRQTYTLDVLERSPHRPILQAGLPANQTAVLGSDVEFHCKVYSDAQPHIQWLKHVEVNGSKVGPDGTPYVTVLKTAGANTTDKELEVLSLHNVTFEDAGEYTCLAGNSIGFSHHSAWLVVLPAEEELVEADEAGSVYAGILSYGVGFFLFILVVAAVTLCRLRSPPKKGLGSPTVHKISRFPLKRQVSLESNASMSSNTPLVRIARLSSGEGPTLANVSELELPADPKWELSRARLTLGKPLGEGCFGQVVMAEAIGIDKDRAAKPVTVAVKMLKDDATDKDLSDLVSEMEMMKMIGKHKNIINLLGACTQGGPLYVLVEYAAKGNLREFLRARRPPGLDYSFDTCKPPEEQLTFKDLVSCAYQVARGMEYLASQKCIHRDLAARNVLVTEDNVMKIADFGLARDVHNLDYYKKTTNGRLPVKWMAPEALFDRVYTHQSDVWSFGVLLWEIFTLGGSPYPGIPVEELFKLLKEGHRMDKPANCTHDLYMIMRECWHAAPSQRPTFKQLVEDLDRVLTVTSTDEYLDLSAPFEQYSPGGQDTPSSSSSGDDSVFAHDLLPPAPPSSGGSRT
# Homo sapiens = species: Homo sapiens; experiment: Inhibition of human full length PKA expressed in baculovirus assessed as substrate phosphorylation using fluorescence-labelled peptides as substrate at 0.06 uM after 90 mins by microfluidic peptide phosphorylation assay
# [3] = target: Hepatocyte growth factor receptor (Homo sapiens) (UniProt P08581); experiment: Inhibition of human MET cytoplasmic domain expressed in baculovirus assessed as substrate phosphorylation using fluorescence-labelled peptides as substrate at 0.06 uM after 90 mins by microfluidic peptide phosphorylation assay
# [4] = target: T1, Serine/threonine-protein kinase BRSK1 (Homo sapiens) (UniProt Q8TDC3); experiment: Inhibition of human full length BRSK1 expressed in baculovirus assessed as substrate phosphorylation using fluorescence-labelled peptides as substrate at 0.06 uM after 90 mins by microfluidic peptide phosphorylation assay
# T1 sequence (whole entry): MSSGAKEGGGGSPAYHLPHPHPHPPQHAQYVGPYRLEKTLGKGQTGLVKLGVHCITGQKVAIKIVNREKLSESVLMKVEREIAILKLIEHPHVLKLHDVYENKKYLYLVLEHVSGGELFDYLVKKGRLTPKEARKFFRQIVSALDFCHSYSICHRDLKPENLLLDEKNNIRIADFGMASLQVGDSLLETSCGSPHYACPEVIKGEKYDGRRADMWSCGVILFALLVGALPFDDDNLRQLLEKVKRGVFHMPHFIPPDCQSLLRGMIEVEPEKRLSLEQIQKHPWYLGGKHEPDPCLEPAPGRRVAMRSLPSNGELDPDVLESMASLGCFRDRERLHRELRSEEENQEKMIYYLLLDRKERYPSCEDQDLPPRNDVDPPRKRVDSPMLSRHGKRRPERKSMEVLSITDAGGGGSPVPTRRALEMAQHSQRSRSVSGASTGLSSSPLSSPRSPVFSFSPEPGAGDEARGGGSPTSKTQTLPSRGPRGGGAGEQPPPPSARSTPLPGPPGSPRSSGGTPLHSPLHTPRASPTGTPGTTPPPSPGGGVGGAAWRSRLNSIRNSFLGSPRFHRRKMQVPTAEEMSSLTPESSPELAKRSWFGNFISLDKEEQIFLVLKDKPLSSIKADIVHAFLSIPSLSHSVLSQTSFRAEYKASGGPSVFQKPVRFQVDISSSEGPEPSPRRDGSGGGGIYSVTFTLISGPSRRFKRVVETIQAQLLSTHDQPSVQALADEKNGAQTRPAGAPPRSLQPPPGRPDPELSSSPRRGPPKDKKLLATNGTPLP
# [5] = tested on: Fibroblast growth factor receptor 2 (Homo sapiens), P21802 [N549H]; experiment: Inhibition of human FGFR2 N549H mutant catalytic domain expressed in baculovirus assessed as substrate phosphorylation using fluorescence-labelled peptides as substrate at 0.2 uM after 90 mins by microfluidic peptide phosphorylation assay
# [6] = target: Serine/threonine-protein kinase PAK 2 (Homo sapiens) (UniProt Q13177); experiment: Inhibition of human truncated PAK2 expressed in Escherichia coli cell assessed as substrate phosphorylation using fluorescence-labelled peptides as substrate at 2 uM after 90 mins by microfluidic peptide phosphorylation assay
# Chain of Serine/threonine-protein kinase PAK 2 (Homo sapiens) (Q13177 whole entry, the tested form may be a part): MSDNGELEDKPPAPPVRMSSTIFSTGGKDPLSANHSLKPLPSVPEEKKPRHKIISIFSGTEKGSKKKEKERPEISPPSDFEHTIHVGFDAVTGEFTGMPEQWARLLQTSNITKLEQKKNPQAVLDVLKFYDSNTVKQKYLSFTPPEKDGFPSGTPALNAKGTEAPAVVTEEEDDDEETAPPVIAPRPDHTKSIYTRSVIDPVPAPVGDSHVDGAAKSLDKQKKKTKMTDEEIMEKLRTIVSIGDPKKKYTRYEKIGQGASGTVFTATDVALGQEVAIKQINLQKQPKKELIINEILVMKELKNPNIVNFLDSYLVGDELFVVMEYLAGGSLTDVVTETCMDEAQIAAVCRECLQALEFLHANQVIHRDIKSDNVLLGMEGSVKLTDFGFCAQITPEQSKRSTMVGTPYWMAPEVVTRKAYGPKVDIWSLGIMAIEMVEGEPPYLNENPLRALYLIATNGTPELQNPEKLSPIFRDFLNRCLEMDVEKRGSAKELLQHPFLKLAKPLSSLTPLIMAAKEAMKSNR
# [7] = target: Tyrosine-protein kinase HCK (Homo sapiens) (UniProt P08631); experiment: Inhibition of human HCK catalytic domain expressed in baculovirus assessed as substrate phosphorylation using fluorescence-labelled peptides as substrate at 2 uM after 90 mins by microfluidic peptide phosphorylation assay
# Chain of Tyrosine-protein kinase HCK (Homo sapiens) (P08631 2-526 limits assumed): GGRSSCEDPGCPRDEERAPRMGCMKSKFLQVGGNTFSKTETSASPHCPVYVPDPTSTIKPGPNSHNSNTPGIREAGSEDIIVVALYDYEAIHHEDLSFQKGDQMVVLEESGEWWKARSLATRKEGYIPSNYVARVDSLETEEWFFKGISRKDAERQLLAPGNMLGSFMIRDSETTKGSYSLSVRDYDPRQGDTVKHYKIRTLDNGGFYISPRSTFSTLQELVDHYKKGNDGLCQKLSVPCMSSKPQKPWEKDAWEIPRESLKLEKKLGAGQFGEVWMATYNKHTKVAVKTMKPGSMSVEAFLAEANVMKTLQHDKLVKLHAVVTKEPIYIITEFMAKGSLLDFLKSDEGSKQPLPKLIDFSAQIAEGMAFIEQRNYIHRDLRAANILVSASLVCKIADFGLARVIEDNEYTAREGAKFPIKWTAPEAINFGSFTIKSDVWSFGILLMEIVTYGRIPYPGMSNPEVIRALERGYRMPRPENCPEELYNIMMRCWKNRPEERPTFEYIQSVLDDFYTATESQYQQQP
# [8] = target: T2, Serine/threonine-protein kinase BRSK2 (Homo sapiens) (UniProt Q8IWQ3); experiment: Inhibition of human truncated BRSK2 expressed in baculovirus assessed as substrate phosphorylation using fluorescence-labelled peptides as substrate at 9 uM after 90 mins by microfluidic peptide phosphorylation assay
# T2 sequence (whole entry): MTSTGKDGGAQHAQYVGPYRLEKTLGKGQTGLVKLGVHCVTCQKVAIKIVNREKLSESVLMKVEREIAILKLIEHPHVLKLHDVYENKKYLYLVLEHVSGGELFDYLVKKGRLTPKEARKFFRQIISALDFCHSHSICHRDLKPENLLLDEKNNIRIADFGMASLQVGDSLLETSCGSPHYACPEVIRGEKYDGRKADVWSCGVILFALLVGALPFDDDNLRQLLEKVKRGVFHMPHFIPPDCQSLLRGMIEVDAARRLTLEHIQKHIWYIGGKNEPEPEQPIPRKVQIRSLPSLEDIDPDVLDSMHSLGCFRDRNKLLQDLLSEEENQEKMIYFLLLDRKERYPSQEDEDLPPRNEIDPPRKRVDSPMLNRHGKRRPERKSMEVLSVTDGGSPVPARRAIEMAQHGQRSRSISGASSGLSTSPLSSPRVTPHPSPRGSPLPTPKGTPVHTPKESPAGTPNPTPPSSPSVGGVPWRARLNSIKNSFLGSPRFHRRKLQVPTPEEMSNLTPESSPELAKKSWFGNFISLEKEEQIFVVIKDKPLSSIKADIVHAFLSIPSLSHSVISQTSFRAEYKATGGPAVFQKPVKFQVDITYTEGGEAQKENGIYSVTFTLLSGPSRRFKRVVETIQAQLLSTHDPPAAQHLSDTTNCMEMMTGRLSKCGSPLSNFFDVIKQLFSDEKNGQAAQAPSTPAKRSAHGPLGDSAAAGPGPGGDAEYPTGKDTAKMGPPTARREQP
# [9] = target: Tyrosine-protein kinase ABL1 (Homo sapiens) (UniProt P00519); experiment: Inhibition of human full-length ABL expressed in baculovirus assessed as substrate phosphorylation using fluorescence-labelled peptides as substrate at 9 uM after 90 mins by microfluidic peptide phosphorylation assay
# Chain of Tyrosine-protein kinase ABL1 (Homo sapiens) (P00519 whole entry): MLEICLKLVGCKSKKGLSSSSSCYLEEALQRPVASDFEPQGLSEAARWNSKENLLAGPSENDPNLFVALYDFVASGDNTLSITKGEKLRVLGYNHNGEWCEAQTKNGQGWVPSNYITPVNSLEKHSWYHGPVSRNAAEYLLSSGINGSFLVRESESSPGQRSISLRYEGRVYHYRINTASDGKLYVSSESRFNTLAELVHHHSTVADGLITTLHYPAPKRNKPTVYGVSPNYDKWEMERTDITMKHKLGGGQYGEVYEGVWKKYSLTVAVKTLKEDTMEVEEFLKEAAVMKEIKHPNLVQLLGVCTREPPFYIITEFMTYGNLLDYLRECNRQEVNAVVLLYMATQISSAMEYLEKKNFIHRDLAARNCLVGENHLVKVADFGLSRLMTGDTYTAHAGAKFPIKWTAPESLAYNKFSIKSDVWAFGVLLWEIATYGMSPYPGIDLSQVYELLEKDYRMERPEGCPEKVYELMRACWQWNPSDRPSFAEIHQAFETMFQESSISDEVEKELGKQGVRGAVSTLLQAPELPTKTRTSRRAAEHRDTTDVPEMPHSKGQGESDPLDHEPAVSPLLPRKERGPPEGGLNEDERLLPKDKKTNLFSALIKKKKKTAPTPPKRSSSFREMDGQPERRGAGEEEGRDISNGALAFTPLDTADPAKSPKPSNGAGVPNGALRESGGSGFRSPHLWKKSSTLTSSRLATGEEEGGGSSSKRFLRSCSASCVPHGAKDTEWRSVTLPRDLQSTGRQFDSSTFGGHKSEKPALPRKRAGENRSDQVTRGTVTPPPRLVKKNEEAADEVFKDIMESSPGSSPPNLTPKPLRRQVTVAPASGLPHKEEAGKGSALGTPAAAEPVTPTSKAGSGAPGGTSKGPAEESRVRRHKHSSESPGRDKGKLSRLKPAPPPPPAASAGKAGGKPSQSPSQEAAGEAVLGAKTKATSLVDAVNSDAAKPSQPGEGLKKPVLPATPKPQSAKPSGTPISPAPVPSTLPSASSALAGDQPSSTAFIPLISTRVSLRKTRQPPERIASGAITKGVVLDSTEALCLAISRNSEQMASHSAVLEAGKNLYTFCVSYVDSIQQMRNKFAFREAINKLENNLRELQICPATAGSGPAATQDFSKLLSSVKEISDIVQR
# [10] = target: Ribosomal protein S6 kinase alpha-2 (Homo sapiens) (UniProt Q15349); experiment: Inhibition of human full length RSK3 expressed in baculovirus assessed as substrate phosphorylation using fluorescence-labelled peptides as substrate at 0.1 uM after 90 mins by microfluidic peptide phosphorylation assay
# [11] = target: Calcium/calmodulin-dependent protein kinase type II subunit delta (Homo sapiens) (UniProt Q13557); details: 0.1 uM
# Description: Inhibition of human full length CAMK2D expressed in baculovirus assessed as substrate phosphorylation using fluorescence-labelled peptides as substrate at 0.1 uM after 90 mins by microfluidic peptide phosphorylation assay
# [12] = target: Protein kinase C delta type (Homo sapiens) (UniProt Q05655); details: 0.1 uM
# Chain of Protein kinase C delta type (Homo sapiens) (Q05655 whole entry, looked up, the tested form may be a part): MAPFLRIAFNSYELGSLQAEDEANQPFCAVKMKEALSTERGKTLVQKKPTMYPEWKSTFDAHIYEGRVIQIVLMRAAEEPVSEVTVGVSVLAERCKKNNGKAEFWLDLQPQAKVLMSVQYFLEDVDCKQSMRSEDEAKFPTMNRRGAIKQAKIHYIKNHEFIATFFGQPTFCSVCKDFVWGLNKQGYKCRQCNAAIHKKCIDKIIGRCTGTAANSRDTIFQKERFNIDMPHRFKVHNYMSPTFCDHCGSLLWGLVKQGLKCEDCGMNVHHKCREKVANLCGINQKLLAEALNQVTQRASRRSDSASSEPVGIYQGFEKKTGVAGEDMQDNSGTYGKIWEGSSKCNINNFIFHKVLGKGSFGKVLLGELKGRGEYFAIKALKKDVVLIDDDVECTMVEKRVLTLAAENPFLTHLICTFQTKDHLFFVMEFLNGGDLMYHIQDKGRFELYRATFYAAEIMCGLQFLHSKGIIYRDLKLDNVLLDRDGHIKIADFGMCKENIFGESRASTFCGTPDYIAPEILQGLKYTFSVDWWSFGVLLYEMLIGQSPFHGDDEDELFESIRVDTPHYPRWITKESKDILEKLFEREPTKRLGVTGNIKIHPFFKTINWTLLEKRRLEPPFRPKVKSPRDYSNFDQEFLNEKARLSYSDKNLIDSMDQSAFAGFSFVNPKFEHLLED
# Description: Inhibition of human truncated PKC delta expressed in baculovirus assessed as substrate phosphorylation using fluorescence-labelled peptides as substrate at 0.1 uM after 90 mins by microfluidic peptide phosphorylation assay
# [13] = target: Protein kinase C eta type (Homo sapiens) (UniProt P24723); experiment: Inhibition of human truncated PKC eta expressed in baculovirus assessed as substrate phosphorylation using fluorescence-labelled peptides as substrate at 1000 uM after 90 mins by microfluidic peptide phosphorylation assay
# Chain of Protein kinase C eta type (Homo sapiens) (P24723 whole entry, the tested form may be a part): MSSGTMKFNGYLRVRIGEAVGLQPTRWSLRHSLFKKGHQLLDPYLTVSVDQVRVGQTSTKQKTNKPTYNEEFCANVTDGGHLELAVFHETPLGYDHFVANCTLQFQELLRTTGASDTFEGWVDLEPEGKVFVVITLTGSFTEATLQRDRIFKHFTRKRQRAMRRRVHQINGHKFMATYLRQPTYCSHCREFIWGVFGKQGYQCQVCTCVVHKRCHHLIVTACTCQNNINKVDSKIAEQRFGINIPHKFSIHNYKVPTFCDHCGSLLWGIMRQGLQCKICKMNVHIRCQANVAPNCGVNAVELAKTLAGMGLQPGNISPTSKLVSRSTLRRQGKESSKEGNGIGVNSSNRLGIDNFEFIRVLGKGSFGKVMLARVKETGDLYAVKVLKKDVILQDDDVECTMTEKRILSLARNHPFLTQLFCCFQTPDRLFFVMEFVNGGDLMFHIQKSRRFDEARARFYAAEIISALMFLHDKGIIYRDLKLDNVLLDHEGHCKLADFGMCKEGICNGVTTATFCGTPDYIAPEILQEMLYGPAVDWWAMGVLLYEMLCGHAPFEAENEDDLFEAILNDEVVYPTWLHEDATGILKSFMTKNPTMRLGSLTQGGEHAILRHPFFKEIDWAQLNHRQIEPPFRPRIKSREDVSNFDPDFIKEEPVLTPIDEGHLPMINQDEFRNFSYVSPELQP
# [14] = target: Calcium/calmodulin-dependent protein kinase type II subunit gamma (Homo sapiens) (UniProt Q13555); experiment: Inhibition of human CAMK2 gamma catalytic domain expressed in baculovirus assessed as substrate phosphorylation using fluorescence-labelled peptides as substrate at 420 uM after 90 mins by microfluidic peptide phosphorylation assay
# Chain of Calcium/calmodulin-dependent protein kinase type II subunit gamma (Homo sapiens) (Q13555 whole entry, the tested form may be a part): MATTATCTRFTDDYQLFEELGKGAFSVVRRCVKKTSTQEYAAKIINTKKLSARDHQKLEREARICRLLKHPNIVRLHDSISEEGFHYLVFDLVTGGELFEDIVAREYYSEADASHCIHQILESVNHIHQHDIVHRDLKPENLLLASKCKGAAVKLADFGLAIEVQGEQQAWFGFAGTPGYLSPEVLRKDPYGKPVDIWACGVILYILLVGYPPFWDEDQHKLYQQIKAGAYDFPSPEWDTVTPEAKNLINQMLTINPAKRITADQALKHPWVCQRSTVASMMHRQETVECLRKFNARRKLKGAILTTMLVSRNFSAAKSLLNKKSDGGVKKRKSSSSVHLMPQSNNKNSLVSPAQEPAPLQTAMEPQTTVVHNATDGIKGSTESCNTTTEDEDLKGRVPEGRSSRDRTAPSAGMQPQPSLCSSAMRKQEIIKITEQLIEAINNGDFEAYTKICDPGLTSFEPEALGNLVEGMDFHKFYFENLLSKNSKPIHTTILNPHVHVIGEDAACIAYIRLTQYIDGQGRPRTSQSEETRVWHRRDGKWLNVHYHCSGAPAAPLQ
smiles,measurement,setting,value
NCC1CCN(c2ncnc3[nH]ccc23)CC1,inhibition,[1],96%
same,inhibition,[2],0.5%
NC1(Cc2ccc(Cl)cc2)CCN(c2ncnc3[nH]ccc23)CC1,inhibition,Homo sapiens,17%
same,inhibition,[3],0%
same,inhibition,[4],0%
Clc1ccc(C2(c3ccc(-c4ncnc5[nH]cnc45)cc3)CCNCC2)cc1,inhibition,[5],7%
NC1CCN(c2ncnc3[nH]ccc23)CC1,inhibition,[6],3.5%
same,inhibition,[7],3%
NCC1CN(c2ncnc3[nH]c4cnccc4c23)CCO1 (stereo not given),inhibition,[8],36%
same,inhibition,[9],12%
C[C@H](CN(C)C)Oc1nc(Nc2cc3cccc(Cl)c3cn2)cnc1C#N,inhibition,[10],60.5%
same,inhibition,[11],0%
same,inhibition,[12],0%
c1cnc2[nH]ccc2c1,inhibition,[13],52%
c1nc(N2CCOCC2)c2nc[nH]c2n1,inhibition,[14],42%
